From US11834486B2, “Incretin analogs and uses thereof” (Eli Lilly and Company, priority 2017, dated 2023)
*1 amine or outer side, *2 acyl side, *3 side chain or, on linkers, in order; H or OH if unused. Where a SMILES comes first, the peptide text is derived from it. Side-chain parts run from the residue outwards. [ ]: non-standard residue; d: D form. The star is where a group is joined. C20 diacid = O=C(O)CCCCCCCCCCCCCCCCCCC(=O)*; αMePhe(2-F) = C[C@](N)(Cc1ccccc1F)C(=O)O; γGlu = O=C(O)[C@H](CCC(=O)[*:2])N[*:1]; AEEA = NCCOCCOCC(=O)O; Aib = CC(C)(N)C(=O)O

Biological target: T1, human GIP-R (Homo sapiens, UniProt P48546)
T1 construct: expressed in transfected cells; host or cells: HEK-293 clonal cell line
T1 sequence (P48546 22-466): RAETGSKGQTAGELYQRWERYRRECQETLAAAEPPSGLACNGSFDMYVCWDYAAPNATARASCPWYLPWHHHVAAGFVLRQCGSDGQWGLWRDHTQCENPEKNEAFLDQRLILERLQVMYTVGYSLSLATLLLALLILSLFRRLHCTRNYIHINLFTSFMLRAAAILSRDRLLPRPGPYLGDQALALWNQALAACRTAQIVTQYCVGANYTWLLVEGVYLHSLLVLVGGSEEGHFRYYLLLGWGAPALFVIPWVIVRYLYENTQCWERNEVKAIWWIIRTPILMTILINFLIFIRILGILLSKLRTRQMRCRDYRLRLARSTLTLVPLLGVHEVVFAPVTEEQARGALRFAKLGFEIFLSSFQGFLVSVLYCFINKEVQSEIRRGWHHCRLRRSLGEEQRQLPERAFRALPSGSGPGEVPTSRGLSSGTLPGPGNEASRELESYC
Experiment: cAMP functional activity in GIP-R-expressing HEK-293 cells, FBS and BSA
Assay type: cell-based
Details: in the presence of FBS and BSA; read-out: cAMP EC50, nM (SEM, n) GIPR

`CC[C@H](C)[C@H](NC(=O)[C@H](Cc1ccccc1)NC(=O)[C@H](C)NC(=O)C(C)(C)NC(=O)[C@H](CCC(N)=O)NC(=O)[C@H](C)NC(=O)[C@H](CCCCNC(=O)COCCOCCNC(=O)COCCOCCNC(=O)CC[C@H](NC(=O)CCCCCCCCCCCCCCCCCCC(=O)O)C(=O)O)NC(=O)[C@H](CCCCN)NC(=O)[C@H](CC(=O)O)NC(=O)[C@H](CC(C)C)NC(=O)[C@H](CC(C)C)NC(=O)[C@@H](NC(=O)[C@H](CO)NC(=O)[C@H](Cc1ccc(O)cc1)NC(=O)[C@H](CC(=O)O)NC(=O)[C@H](CO)NC(=O)[C@@H](NC(=O)[C@](C)(Cc1ccccc1F)NC(=O)[C@@H](NC(=O)CNC(=O)[C@H](Cc1c[nH]cn1)NC(=O)C(C)(C)NC(=O)[C@@H](N)Cc1ccc(O)cc1)[C@@H](C)O)[C@@H](C)O)[C@@H](C)CC)C(=O)N[C@@H](CCC(=O)O)C(=O)N[C@@H](Cc1ccc(O)cc1)C(=O)N[C@@H](CC(C)C)C(=O)N[C@@H](CC(C)C)C(=O)N[C@@H](CCC(=O)O)C(=O)NCC(=O)NCC(=O)N1CCC[C@H]1C(=O)N[C@@H](CO)C(=O)N[C@@H](CO)C(=O)NCC(=O)N[C@@H](C)C(=O)N1CCC[C@H]1C(=O)N1CCC[C@H]1C(=O)N1CCC[C@H]1C(=O)N[C@@H](CO)C(N)=O` [Example 3] (H-Y[Aib]HGT[αMePhe(2-F)]TSDYSILLDKK([AEEA-AEEA-γGlu-C20 diacid])AQ[Aib]AFIEYLLEGGPSSGAPPPS-NH2) showed an EC50 of 1.37 nM.
Work on `CC[C@H](C)[C@H](NC(=O)[C@H](Cc1ccccc1)NC(=O)[C@H](C)NC(=O)C(C)(C)NC(=O)[C@H](CCC(N)=O)NC(=O)[C@H](C)NC(=O)[C@H](CCCCNC(=O)COCCOCCNC(=O)CC[C@H](NC(=O)CCCCCCCCCCCCCCCCCCC(=O)O)C(=O)O)NC(=O)[C@H](CCCCN)NC(=O)[C@H](CC(=O)O)NC(=O)[C@H](CC(C)C)NC(=O)[C@H](CC(C)C)NC(=O)[C@@H](NC(=O)[C@H](CO)NC(=O)[C@H](Cc1ccc(O)cc1)NC(=O)[C@H](CC(=O)O)NC(=O)[C@H](CO)NC(=O)[C@@H](NC(=O)[C@](C)(Cc1ccccc1F)NC(=O)[C@@H](NC(=O)CNC(=O)[C@H](CCC(N)=O)NC(=O)C(C)(C)NC(=O)[C@@H](N)Cc1ccc(O)cc1)[C@@H](C)O)[C@@H](C)O)[C@@H](C)CC)C(=O)N[C@@H](CCC(=O)O)C(=O)N[C@@H](Cc1ccc(O)cc1)C(=O)N[C@@H](CC(C)C)C(=O)N[C@@H](CC(C)C)C(=O)N[C@@H](CCC(=O)O)C(=O)NCC(=O)NCC(=O)N1CCC[C@H]1C(=O)N[C@@H](CO)C(=O)N[C@@H](CO)C(=O)NCC(=O)N[C@@H](C)C(=O)N1CCC[C@H]1C(=O)N1CCC[C@H]1C(=O)N1CCC[C@H]1C(=O)N[C@@H](CO)C(N)=O` [Example 4] yielded an EC50 of 1.37 nM.
